This is an account of results in US20240115521A1, “COMPOUNDS FOR THE TREATMENT OF MYCOBACTERIAL DISEASES” (priority 2022, published 2024).

The test system of one data set is Caco2. As to the kind of experiment: Caco2 in vitro permeability assay. The conditions noted are these: for Caco2 PappA > B: apical to basolateral; for Caco2 PappB > A: basolateral to apical; for GI absorption by Caco-2 in vitro testing: result in words. A general note: Passage across Caco-2 layers is used to estimate intestinal permeability.
Another data set deals with intracellular BCG. As to the kind of experiment: microbe, parasite or virus in culture. In kind it is cell-based. The following applies: Mycobacterium tuberculosis variant bovis BCG, read-out: Activity on intracellular BCG (% inhibition).
The test system of a further data set is intracellular Mtb. As to the kind of experiment: Inhibition of Mtb growth inside primary human monocytes (3H-Uridine). Format: cell-based. The conditions noted are these: Mycobacterium tuberculosis, Monocyte, all drugs tested at 20 μM. How it is done:
FIGS. 1A & 1B show the structure and anti-mycobacterial activity of select troponoids. Shown are the structures (FIG. 1A) and calculated percent inhibitions of M. tuberculosis (Mtb) growth inside primary human monocytes by 4 selected troponoids (FIG. 1B).
Numerous troponoids have been synthesized and screened on Mtb and MAC and identified three with activities at a concentration of ≤5 μM. […] Briefly, primary monocytes were infected with mycobacteria (Mtb) for 4 hours, then co-cultured with indicated troponoids (2.5-20 μM) for 3 days. Then mammalian cells were lysed with saponin and residual mycobacteria quantified via ^3H-Uridine as previously described (Abate et al. 2015).

Data set [1] in a line: Human liver microsome assay. In kind it is in vitro ADME. The conditions noted are these: for half-life: human liver microsomes; for Stability in human liver microsomal studies: result in words. Background: Liver microsomes are a subcellular fraction often used to study metabolism.
Text: (§1) Because the murine model will be used for initial drug efficacy studies and our goal is to develop drugs for human use, in vitro liver microsomal studies we performed using both mouse and human liver microsomes.
Data set [2] is described as follows: Mouse liver microsome stability. Format: in vitro ADME. The conditions noted are these: result in words.
Text: as §1
A short description of data set [3]: Caco2 in vitro permeability assay. The following applies: human, Caco-2.

Take `CC(=O)CC(c1ccccc1)c1c(O)c2ccccc2oc1=O` (stereo not shown) [Warfarin, reference compound]: in the data set on Caco2, the “Caco2 PappA > B” value was 9.37E−05 sec*cm^2 and the “Caco2 PappB > A” value is recorded as 2.70E−04 sec*cm^2.
As usually defined, the inhibition is how much of the control response was suppressed. `O=C1Nc2ccccc2CCC1S` (stereo not shown) [#845]: in the data set on intracellular BCG, the inhibition at 20 µM came out at 9%.
Broadly, the half-life is the time in which the quantity being followed falls by half. Read a low half-life as fast loss. For orientation: efflux ratio means the permeability from basolateral to apical divided by that in the opposite direction, in the common usage. For the molecule `CCCCSc1ccc(SCCCC)c(O)c(=O)c1O` [#694], in the data set on intracellular BCG, the inhibition at 20 µM is 91.8%. In the data set with intracellular Mtb, this molecule displayed an inhibition at 20 µM of 86.5%. In data set [1], the half-life is 9.8 min and the “Stability in human liver microsomal studies” value is given as “stable”. The “Stability in mice liver microsomal studies” value in data set [2] is “stable”. Also, the efflux ratio in data set [3] turned out to be 19. In the data set with Caco2, the “Caco2 PappA > B” value is listed as 5.83E−06 sec*cm^2, the “Caco2 PappB > A” value is listed as 1.11E−04 sec*cm^2 and the “GI absorption by Caco-2 in vitro testing” value is reported as “good GI absorption”.
As for `Cc1ccc(C(=O)Oc2cc(C(C)C)cccc2=O)cc1` [#847], in the data set with intracellular BCG, the inhibition at 20 µM turned out to be 28.8%.
Turning to `COc1cc(-c2ccccc(S)c2=O)cc(OC)c1OC` [#842], the inhibition at 20 µM in the data set with intracellular BCG is 25%.
Regarding `CCS(=O)(=O)N1CCN(C(=O)c2cc(O)c(=O)c(O)cc2C)CC1` [#802], the inhibition at 20 µM with intracellular BCG stood at 0%.
On to `CCCCCCSc1ccc(SCCCCCC)c(O)c(=O)c1O` [#841], for which the inhibition at 20 µM in the data set on intracellular BCG was 83.5%. Further, 20 µM produced 91.5% inhibition in the data set with intracellular Mtb. Further, in data set [1], the half-life was 7 min and the “Stability in human liver microsomal studies” value is recorded as “stable”. The “Stability in mice liver microsomal studies” value in data set [2] is recorded as “stable”. In data set [3], the efflux ratio came out at 1.7. For the same molecule, in the data set with Caco2, the “Caco2 PappA > B” value came to 3.08E−06 sec*cm^2, the “Caco2 PappB > A” value is given as 5.18E−06 sec*cm^2 and the “GI absorption by Caco-2 in vitro testing” value is “good GI absorption”.
Turning to `Cc1ccc(Sc2cccc(O)c(=O)c2O)cc1` [#838], the inhibition at 20 µM in the data set on intracellular BCG amounted to 29.3%.
On the same count and under the same terms, as for `COc1ccc(-c2cc(=O)c3c(O)cc(O)cc3o2)cc1` [#861], the figure is 0%; as for `COc1ccc(-c2ccccc(N)c2=O)cc1` [#762], 10.8%.
Still for that read-out and setting: as for `CCCCSc1cccc(O)c(=O)c1O` [#693], the figure is 89.2%.
As to `CCCCCCSc1cccc(O)c(=O)c1O` [#840], in the data set with intracellular BCG, the inhibition at 20 µM amounted to 74.7%. Besides, in the data set with intracellular Mtb, the inhibition at 20 µM came to 89.4%. For the same molecule, in data set [1], the half-life is over 30 min and the “Stability in human liver microsomal studies” value was “stable”. For the same molecule, in data set [2], the “Stability in mice liver microsomal studies” value was “stable”. Moreover, the efflux ratio in data set [3] was found to be 14.6. Further, in the data set with Caco2, the “Caco2 PappA > B” value worked out at 1.45E−05 sec*cm^2, the “Caco2 PappB > A” value was 2.11E−04 sec*cm^2 and the “GI absorption by Caco-2 in vitro testing” value is reported as “good GI absorption”.
Consider `O=c1c(O)cccc(S)c1O` [#701], for which the inhibition at 20 µM in the data set with intracellular BCG is 38.8%.
Still for that read-out and setting: as for `CCCCCCS(=O)(=O)c1cccc(O)c(=O)c1O` [#699], the figure is 0%.
Still for that read-out and setting: as for `CCn1cc(C(=O)O)c(=O)c2cc(F)c(N3CCN(c4cccccc4=O)CC3)cc21` [#764], the figure is 14.5%.
`CC(C)c1nc(CN(C)C(=O)N[C@H](C(=O)N[C@@H](Cc2ccccc2)C[C@H](O)[C@H](Cc2ccccc2)NC(=O)OCc2cncs2)C(C)C)cs1` [Ritonavir, reference compound]: the half-life in data set [1] was under 5 min.
As to `Cc1ccc(S(=O)(=O)c2cccc(O)c(=O)c2O)cc1` [#697], the inhibition at 20 µM with intracellular BCG came to 0%.
On the same count and under the same terms, as for `O=c1cccccc1N1CCOCC1` [#765], the figure is 24.3%; as for `O=c1cccccc1N1CCCC1` [#766], 14%.
Still for that read-out and setting: with `O=C(O)COc1cc(O)c2c(=O)cc(-c3ccccc3)oc2c1` [#859] the figure was 11.3%; with `O=C1Nc2ccccc2CCC1SC1CCc2ccccc2NC1=O` (stereo not shown) [#846], 0%; with `COc1cc(-c2ccccc(SSc3ccccc(-c4cc(OC)c(OC)c(OC)c4)c3=O)c2=O)cc(OC)c1OC` [#843], 26.5%.
Consider `Cc1cc(O)c(=O)c(O)cc1C(=O)N1CCSC1` [#712], for which, in the data set on intracellular BCG, the inhibition at 20 µM came to 32.1%.
In the case of `O=c1c(S)ccccc1-c1ccccc1` [#844], the inhibition at 20 µM with intracellular BCG stood at 19.1%.
